Reference: patent US7135572B2 (CJ Corp, priority 2001, dated 2006)

How the values were obtained:
cyclooxygenase-1 = molecular target: T1, cyclooxygenase-1 (Homo sapiens, UniProt P23219); experiment: Inhibition of cyclooxygenase-1 in U-937 cells (PGE2 quantitation); format: cell-based; details: for Inhibitory effects of cyclooxygenase (COX): COX-1: U-937 cells
T1 construct: The cultured U-937 (humane lymphoma cell, obtained from Korean cell line bank) was centrifuged to collect the pellet; endogenous in cells; host or cells: U-937 (human lymphoma cell line, Korean cell line bank)
Method: (§1) In order to investigate pharmacologically the selective inhibition activity against cyclooxygenase-2 enzyme, the inhibitive effects against cyclooxygenase-1 and cyclooxygenase-2 were measured by two methods as follows.
Then, the pellet was diluted with 1×HBSS(Hank's balanced salt solutin) at the concentration of 1×10^6 cells/ml, and 1 ml of them was transferred into each well of 12-well plates, and then dissolved with DMSO. 5μl of the diluted sample solution, and 5μl of DMSO vehicle were added therein and mixed, and the mixture was cultured at 37° C. in Co2 incubator for 15 minutes. Arachidonic acid as a substrate was dissolved in ethanol to prepare a stock solution with a concentration of 10 mM, followed by diluting with 1×HBSS to prepare the solution of 1 mM. 10 μl of 1 mM Arachidonic acid solution was added to each of the treated wells, and the mixture was cultured at 37° C. in CO2 incubator for 30 minutes. The cell solution of each well was collected in the centrifuge tube and was centrifuged at 4° C. for 5 minutes at 10,000 rpm. As PGE2 existed in the supernatant separated from collected cell, the concentration of PGE2 was quantitated by using monoclonal kit from Cayman Chemicals, and the concentration of samples and vehicle were compared to estimate the inhibition ratio (%) of each compound against cyclooxygenase-1. Ultimately, the inhibition effect against the cyclooxygenase-1 enzyme was obtained from the result.

cyclooxygenase-2 = molecular target: T2, cyclooxygenase-2 (Mus musculus, UniProt Q05769); experiment: Inhibition of cyclooxygenase-2 in Raw 264.7 cells treated with interferon γ and LPS (PGE2 EIA); format: cell-based; details: for Inhibitory effects of cyclooxygenase (COX): COX-2: Raw 264.7 cells; for selectivity of cyclooxygenase-2 compared with the comparative substance (in words): COX-2 versus COX-1
T2 construct: endogenous in cells; host or cells: Raw 264.7 (Korean cell line bank), aspirin-pretreated, induced with interferon gamma and LPS
T2 sequence (Q05769 18-604): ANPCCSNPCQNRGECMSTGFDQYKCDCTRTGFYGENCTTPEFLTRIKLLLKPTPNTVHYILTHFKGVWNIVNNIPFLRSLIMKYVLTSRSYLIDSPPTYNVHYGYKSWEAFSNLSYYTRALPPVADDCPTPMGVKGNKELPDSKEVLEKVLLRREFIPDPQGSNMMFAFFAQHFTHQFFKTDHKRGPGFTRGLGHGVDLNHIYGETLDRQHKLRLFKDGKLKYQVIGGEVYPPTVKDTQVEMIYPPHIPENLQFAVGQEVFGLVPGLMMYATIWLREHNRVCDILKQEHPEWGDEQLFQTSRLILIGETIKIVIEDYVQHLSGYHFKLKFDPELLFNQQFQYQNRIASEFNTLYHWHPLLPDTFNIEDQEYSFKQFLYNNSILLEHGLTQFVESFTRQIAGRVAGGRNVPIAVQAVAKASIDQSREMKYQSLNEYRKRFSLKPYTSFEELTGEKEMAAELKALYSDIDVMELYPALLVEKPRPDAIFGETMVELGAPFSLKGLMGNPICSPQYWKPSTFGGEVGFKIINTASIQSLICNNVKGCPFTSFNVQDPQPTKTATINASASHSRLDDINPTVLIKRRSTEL
Method: as §1
And then, each samples were replaced with new media and cultured for 30 minutes. In addition, the samples was treated with 100 units/ml of interferon Υ and 100 ng/ml of lipopolysaccharide(LPS), and cultured for 18 hours. Then, the media was transferred to other tubes and the PGE 2 was quantitated by using EIA kit from Cayman Chemicals.

T1 sequence (P23219 24-599): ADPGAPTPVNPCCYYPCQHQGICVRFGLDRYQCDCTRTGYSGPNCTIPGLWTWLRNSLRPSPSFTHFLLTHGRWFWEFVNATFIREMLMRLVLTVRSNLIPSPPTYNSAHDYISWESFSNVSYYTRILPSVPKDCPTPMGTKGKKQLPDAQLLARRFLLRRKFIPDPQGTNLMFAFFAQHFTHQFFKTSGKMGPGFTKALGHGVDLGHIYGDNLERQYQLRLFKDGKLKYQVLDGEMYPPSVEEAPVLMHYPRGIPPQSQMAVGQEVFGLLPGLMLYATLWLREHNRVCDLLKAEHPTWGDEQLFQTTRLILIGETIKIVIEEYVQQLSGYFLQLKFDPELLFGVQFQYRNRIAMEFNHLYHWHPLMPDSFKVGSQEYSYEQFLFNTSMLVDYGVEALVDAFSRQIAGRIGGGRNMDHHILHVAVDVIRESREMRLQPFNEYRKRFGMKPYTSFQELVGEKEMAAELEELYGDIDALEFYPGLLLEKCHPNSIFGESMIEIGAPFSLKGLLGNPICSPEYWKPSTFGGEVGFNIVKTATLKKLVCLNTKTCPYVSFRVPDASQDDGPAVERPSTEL

SMILES	Inhibitory effects of cyclooxygenase (COX): COX-1 (cyclooxygenase-1; 3 μM) [% inhibition]	Inhibitory effects of cyclooxygenase (COX): COX-1 (cyclooxygenase-1; 10 μM) [% inhibition]	Inhibitory effects of cyclooxygenase (COX): COX-1 (cyclooxygenase-1; 30 μM) [% inhibition]	Inhibitory effects of cyclooxygenase (COX): COX-2 (cyclooxygenase-2; 30 nM) [% inhibition]	Inhibitory effects of cyclooxygenase (COX): COX-2 (cyclooxygenase-2; 100 nM) [% inhibition]	Inhibitory effects of cyclooxygenase (COX): COX-2 (cyclooxygenase-2; 300 nM) [% inhibition]	inhibition effect against cyclooxygenase-1 compared with Celecoxib (in words) (cyclooxygenase-1; same condition as Celecoxib)	selectivity of cyclooxygenase-2 compared with the comparative substance (in words) (cyclooxygenase-2)	inhibition effect against cyclooxygenase-2 compared with Celecoxib (in words) (cyclooxygenase-2; low concentration, same condition as Celecoxib)
COc1ccc(-c2nc(C)nn2-c2ccc(S(N)(=O)=O)cc2)cc1OC [Example 12, 4-[5-(3,4-dimethoxy-phenyl)-3-mehtyl-[1,2,4]triazole-1-yl]-benzenesulfonamide]	27.3	34.3	37.7	30.3	55.8	70.4	–	–	–
Cc1nc(-c2ccccc2)n(-c2ccc(S(N)(=O)=O)cn2)n1 [Example 14, 6-(3-methyl-5-phenyl-[1,2,4]triazole-1-yl)-pyridine-3-sulfonic acid amide]	12.8	20.4	28.9	72.1	99.8	99.9	much lower level	better than any other substances	more excellent
Cc1nc(-c2ccc(Br)cc2)n(-c2ccc(S(C)(=O)=O)cc2)n1 [Example 30, 5-(4-bromo-phenyl)-1-(4-methanesulfonyl-phenyl)-3-methyl-1H-[1,2,4]triazole]	77.6	79.8	82.1	27.3	29.8	36.2	–	–	–
COc1cccc(-c2nc(C)nn2-c2ccc(S(N)(=O)=O)cc2)c1 [Example 10, 4-[5-(3-methoxy-phenyl)-3-methyl-[1,2,4]triazole-1-yl]-benzenesulfonamide]	38.8	42.0	45.6	42.1	54.2	68.8	–	–	–
Cc1nc(-c2ccc(Br)cc2)n(-c2ccc(S(N)(=O)=O)cc2)n1 [Example 4, 4-[5-(4-bromo-phenyl)-3-methyl-[1,2,4]triazole-1-yl]-benzenesulfonamide]	85.6	87.7	91.1	64.2	99.0	99.8	–	hardly different	–
Cc1ccc(-c2nc(C)nn2-c2ccc(S(N)(=O)=O)cc2)cc1 [Example 5, 4-(3-methyl-5-p-toly-[1,2,4]triazole-1-yl)-benzenesulfonamide]	48.6	61.1	79.7	45.3	53.3	75.2	–	–	–
Cc1nc(-c2ccc(Br)cc2)n(-c2ccc(S(N)(=O)=O)cn2)n1 [Example 17, 6-[5-(4-bromo-phenyl)-3-methyl-[1,2,4]triazole-1-yl]-pyridine-3-sulfonic acid amide]	5.6	28.7	32.7	47.8	66.9	78.2	–	–	–
Cc1nc(-c2ccccc2)n(-c2ccc(S(N)(=O)=O)cc2)n1 [Example 1, 4-(3-methyl-5-phenyl-[1,2,4]triazole-1-yl)-benzenesulfonamide]	12.1	25.9	53.1	48.5	50.0	81.4	–	–	–
Cc1nc(-c2cccc(Cl)c2)n(-c2ccc(S(N)(=O)=O)cc2)n1 [Example 8, 4-[5-(3-chloro-phenyl)-3-methyl-[1,2,4]triazole-1-yl]-benzenesulfonamide]	62.0	75.1	84.7	31.3	52.6	50.5	–	–	–
Cc1nc(-c2ccccc2)n(-c2ccc(S(C)(=O)=O)cc2)n1 [Example 24, 1-(4-methanesulfony-phenyl)-3-methyl-5-phenyl-1H-[1,2,4]triazole]	1.3	40.8	71.5	29.7	38.0	64.4	–	–	–
Cc1nc(-c2ccc(Cl)cc2)n(-c2ccc(S(C)(=O)=O)cc2)n1 [Example 28, 5-(4-chloro-phenyl)-1-(4-methanesulfonyl-phenyl)-3-methyl-1H-[1,2,4]triazole]	72.9	73.1	85.4	33.9	38.8	57.8	–	–	–
COc1cc(OC)cc(-c2nc(C)nn2-c2ccc(S(N)(=O)=O)cc2)c1 [Example 13, 4-[5-(3,5-dimethoxy-phenyl)-3-methyl-[1,2,4]triazole-1-yl]-benzenesulfonamide]	63.8	65.9	76.8	37.9	56.1	59.3	–	–	–
Cc1nc(-c2cccc(Br)c2)n(-c2ccc(S(N)(=O)=O)cc2)n1 [Example 9, 4-[5-(3-bromo-phenyl)-3-methyl-[1,2,4]triazole-1-yl]-benzenesulfonamide]	78.7	81.9	89.5	66.5	89.2	99.2	–	hardly different	–
